Measurements taken from patent US10364256B2 (GlaxoSmithKline Intellectual Property Development Limited, priority 2015, dated 2019).

Tests used:
[1] = molecular target: T1, Keap1 Kelch domain (321-609) / TAMRA-labeled 16mer NRF2 peptide (ETGE motif) (Homo sapiens, UniProt Q14145); assay: NRF2-Keap1 FP Assay (Keap1 Kelch fluorescence polarization); assay type: binding; details: 20 nM Keap1 (321-609), 8 nM Tamra labeled peptide
T1 construct: the Kelch domain (321-609) of Keap1 is used
Procedure, shortened: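 Compound dilutions (3-fold) were incubated 1 hr at room temperature with 20 nM Keap1 Kelch (321-609) and 8 nM TAMRA-labeled ETGE 16mer peptide. Buffer was 50 mM Tris pH 8.0, 100 mM NaCl, 5 mM MgCl2, 1 mM DTT, 2 mM CHAPS, 0.005% BSA. Fluorescence polarization (mP) was normalized to controls and fitted with a four-parameter equation to give pIC50.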

[2] = molecular target: T2, full length Keap1 protein / full length NRF2 protein (Homo sapiens, UniProt Q14145); assay: NRF2-Keap1 TR-FRET Low Protein Assay; assay type: binding; details: 1.25 nM Keap1 FlagHis and 2.5 nM biotin-NRF2 added
T2 construct: full length NRF2 protein and full length Keap1 protein (Keap1 exists a dimer) are used; His
T2 sequence (Q14145 whole entry): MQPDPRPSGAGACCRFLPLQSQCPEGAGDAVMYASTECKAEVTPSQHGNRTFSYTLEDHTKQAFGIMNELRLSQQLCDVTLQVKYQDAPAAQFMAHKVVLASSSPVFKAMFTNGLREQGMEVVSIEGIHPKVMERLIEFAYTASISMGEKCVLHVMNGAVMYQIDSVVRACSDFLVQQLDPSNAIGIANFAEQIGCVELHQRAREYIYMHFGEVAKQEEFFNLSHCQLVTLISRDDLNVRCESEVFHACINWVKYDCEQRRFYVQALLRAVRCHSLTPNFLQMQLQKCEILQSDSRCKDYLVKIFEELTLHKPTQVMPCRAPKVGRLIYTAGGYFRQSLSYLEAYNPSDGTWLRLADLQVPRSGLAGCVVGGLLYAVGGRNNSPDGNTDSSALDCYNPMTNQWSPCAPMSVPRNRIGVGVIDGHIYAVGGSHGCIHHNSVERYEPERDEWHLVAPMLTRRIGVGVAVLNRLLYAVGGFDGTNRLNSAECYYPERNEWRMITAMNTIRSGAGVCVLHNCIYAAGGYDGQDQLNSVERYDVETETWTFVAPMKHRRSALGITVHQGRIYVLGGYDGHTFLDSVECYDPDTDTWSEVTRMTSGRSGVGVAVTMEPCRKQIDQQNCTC
Procedure, shortened: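 Flag-tagged full-length Keap1 was preincubated with compound (3-fold series) for 2.25 h at 37 °C in Tris pH 8.0/MgCl2/NaCl/BSA/DTT/CHAPS. Biotin-Avi-NRF2 (added at 2.5 nM) was then bound for 1.25 h at 4 °C. Eu-streptavidin/anti-Flag-APC TR-FRET (665/615 nm) was read after 1 h at RT, and pIC50 came from a four-parameter fit.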

T1 sequence (Q14145 321-609): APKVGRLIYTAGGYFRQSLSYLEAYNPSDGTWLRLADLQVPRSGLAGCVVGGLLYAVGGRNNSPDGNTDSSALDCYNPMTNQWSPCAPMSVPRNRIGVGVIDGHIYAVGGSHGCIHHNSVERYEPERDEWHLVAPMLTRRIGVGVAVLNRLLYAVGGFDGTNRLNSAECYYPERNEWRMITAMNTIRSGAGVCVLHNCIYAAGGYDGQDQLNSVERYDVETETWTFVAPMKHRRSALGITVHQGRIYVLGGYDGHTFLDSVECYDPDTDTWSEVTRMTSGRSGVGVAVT

Row | SMILES | IC50 [1] [nM] | IC50 [2] [nM]
1 | Cn1cc(C2CC2c2c(C(=O)O)cnn2-c2cccc(-c3cccc(-n4ncc5c4C(C)(C)CC5)c3)c2)nn1 (stereo not shown) [Example 212, 1-(3′-(6,6-Dimethyl-5,6-dihydrocyclopenta[c]pyrazol-1(4H)-yl)-[1,1′-biphenyl]-3-yl)-5-(2-(1-methyl-1H-1,2,3-triazol-4-yl)cyclopropyl)-1H-pyrazole-4-carboxylic Acid] | 10 to 100 | < 10
2 | CCC[C@@H]1CCCCN1C(=O)c1cccc(-c2cccc(-n3ncc(C(=O)O)c3C3CC3c3cnn(C)c3)c2)c1 (stereo partly drawn) [Example 213, 5-(2-(1-Methyl-1H-pyrazol-4-yl)cyclopropyl)-1-(3′-((R)-2-propylpiperidine-1-carbonyl)-[1,1′-biphenyl]-3-yl)-1H-pyrazole-4-carboxylic Acid] | 10 to 100 | < 10
3 | CCC[C@@H]1CCCCN1C(=O)c1cccc(-c2cccc(-n3ncc(C(=O)O)c3C3CC3c3cnn(C)c3)c2)c1F (stereo partly drawn) [Example 214, 1-(2′-Fluoro-3′-((R)-2-propylpiperidine-1-carbonyl)-[1,1′-biphenyl]-3-yl)-5-(2-(1-methyl-1H-pyrazol-4-yl)cyclopropyl)-1H-pyrazole-4-carboxylic Acid] | 10 to 100 | < 10
4 | Cn1cc(C2CC2c2c(C(=O)O)cnn2-c2cccc(-c3cccc(C(=O)CC4CCCCC4)c3)c2)nn1 (stereo not shown) [Example 215, 1-(3′-(2-Cyclohexylacetyl)-[1,1′-biphenyl]-3-yl)-5-(2-(1-methyl-1H-1,2,3-triazol-4-yl)cyclopropyl)-1H-pyrazole-4-carboxylic Acid] | 10 to 100 | 10 to 100
5 | COC(CC1CCCCC1)c1cccc(-c2cccc(-n3ncc(C(=O)O)c3C3CC3c3cn(C)nn3)c2)c1 (stereo not shown) [Example 216, 1-(3′-(2-Cyclohexyl-1-methoxyethyl)-[1,1′-biphenyl]-3-yl)-5-(2-(1-methyl-1H-1,2,3-triazol-4-yl)cyclopropyl)-1H-pyrazole-4-carboxylic Acid] | 10 to 100 | 10 to 100
6 | Cn1cc(C2CC2c2c(C(=O)O)cnn2-c2cccc(-c3cccc(C(O)CC4CCCCC4)c3)c2)nn1 (stereo not shown) [Example 217, 1-(3′-(2-Cyclohexyl-1-hydroxyethyl)-[1,1′-biphenyl]-3-yl)-5-(2-(1-methyl-1H-1,2,3-triazol-4-yl)cyclopropyl)-1H-pyrazole-4-carboxylic acid] | 100 to 1000 | 10 to 100
7 | CC(CC1CCCCC1)Oc1cccc(-c2cccc(-n3ncc(C(=O)O)c3C3CC3c3cn(C)nn3)c2)c1 (stereo not shown) [Example 218, 1-(3′-((1-Cyclohexylpropan-2-yl)oxy)-[1,1′-biphenyl]-3-yl)-5-(2-(1-methyl-1H-1,2,3-triazol-4-yl)cyclopropyl)-1H-pyrazole-4-carboxylic Acid] | 10 to 100 | 10 to 100
8 | CC(Oc1cccc(-c2cccc(-n3ncc(C(=O)O)c3C3CC3c3cn(C)nn3)c2)c1)C1CCCCC1 (stereo not shown) [Example 219, 1-(3′-(1-Cyclohexylethoxy)-[1,1′-biphenyl]-3-yl)-5-(2-(1-methyl-1H-1,2,3-triazol-4-yl)cyclopropyl)-1H-pyrazole-4-carboxylic acid] | 10 to 100 | 10 to 100
9 | Cn1cc(C2CC2c2c(C(=O)O)cnn2-c2cccc(-c3cccc(OCc4ccccc4)c3)c2)nn1 (stereo not shown) [Example 221] | 100 to 1000 | 100 to 1000
10 | Cn1cc(C2CC2c2c(C(=O)O)cnn2-c2cccc(-c3cccc(OCc4ccccc4F)c3)c2)nn1 (stereo not shown) [Example 222, 1-(3′-((2-Fluorobenzyl)oxy)-[1,1′-biphenyl]-3-yl)-5-(2-(1-methyl-1H-1,2,3-triazol-4-yl)cyclopropyl)-1H-pyrazole-4-carboxylic acid] | 10 to 100 | 10 to 100
11 | Cn1cc(C2CC2c2c(C(=O)O)cnn2-c2cccc(-c3cccc(OCc4ccc(F)cc4)c3)c2)nn1 (stereo not shown) [Example 223, 1-(3′-((4-Fluorobenzyl)oxy)-[1,1′-biphenyl]-3-yl)-5-(2-(1-methyl-1H-1,2,3-triazol-4-yl)cyclopropyl)-1H-pyrazole-4-carboxylic acid] | 100 to 1000 | 100 to 1000
